Measured values from publication PMC8521518, “Nicotinamide Adenine Dinucleotide-Dependent Flavin Oxidoreductase of Mycoplasma hyopneumoniae Functions as a Potential Novel Virulence Factor and Not Only as a Metabolic Enzyme” (Frontiers in Microbiology, 2021).

Molecular target: T1, rNFOR (Mhp NFOR, NADH-dependent flavin oxidoreductase) (Mesomycoplasma hyopneumoniae, UniProt E4QSY0)
T1 construct: gene baiH; 44 kDa on gel
Experiment: NADH oxidation
Type: biochemical
Conditions: 0.5 mM NADH, 10 uM FMN (5 min preincubation), 0.1 M potassium phosphate pH 7.5, 1 mM DTT, 25 C

T1 sequence (E4QSY0 entry or part of it): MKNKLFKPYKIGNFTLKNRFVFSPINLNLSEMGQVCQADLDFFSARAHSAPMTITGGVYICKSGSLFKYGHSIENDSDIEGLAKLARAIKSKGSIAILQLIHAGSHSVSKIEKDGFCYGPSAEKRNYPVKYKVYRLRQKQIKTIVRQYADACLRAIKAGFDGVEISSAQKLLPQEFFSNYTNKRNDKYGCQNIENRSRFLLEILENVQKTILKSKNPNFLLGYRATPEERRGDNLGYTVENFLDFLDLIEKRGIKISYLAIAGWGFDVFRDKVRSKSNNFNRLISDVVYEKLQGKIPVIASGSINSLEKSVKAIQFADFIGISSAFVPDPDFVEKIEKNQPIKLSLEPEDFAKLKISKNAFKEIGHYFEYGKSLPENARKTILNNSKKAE

Question: With NC(=O)C1=CN([C@@H]2O[C@H](COP(=O)(O)OP(=O)(O)OC[C@H]3O[C@@H](n4cnc5c(N)ncnc54)[C@H](O)[C@@H]3O)[C@@H](O)[C@H]2O)C=CC1 [NADH] as the compound, how does the “NADH oxidation, absorbance at 340 nm” value read?
Answer: Its value is “enzymatic activity of purified rNFOR was determined by calculating the oxidation of NADH to NAD^+”.
